From patent US20180045715A1, “STRUCTURE AND FUNCTION OF THE SALICYCLIC ACID BINDING SITES ON HUMAN HMGB1 AND METHODS OF USE THEREOF FOR THE RATIONAL DESIGN OF BOTH SALICYCLIC ACID DERIVATIVES AND OTHER AGENTS THAT ALTER ANIMAL AND PLANT HMGBS ACTIVITIES” (Boyce Thompson Institute for Plant Research, Inc., priority 2015, published 2018)

Legend:
CXCL12 = molecular target: T1, CXCL12 (Homo sapiens, UniProt P48061); assay: WaterLOGSY NMR with CXCL12; format: binding; conditions: 6 mM SA or 5 mM ac3AESA, 20 μM protein
T1 construct: full-length disulfide-intact CXCL12
Source text: (§1) NMR can be used to detect protein ligand interactions either by protein-detected experiments (Lepre, Moore et al. 2004), detecting changes in the frequencies of resonances of the protein sample due to ligand binding (protein-detected chemical shift perturbation (CSP) experiments), or by ligand-detected experiments (Lepre, Moore et al. 2004), in which NMR properties of the ligands due to ligand-protein interactions are detected. Protein-detected ligand binding experiments are usually done using isotope-enriched protein samples which can be studied by isotope-filtered NMR experiments, including for example ^15N-^1H-HSQC (Kay, Keifer et al. 1992). Ligand-detected experiments include the Waterlogsy experiment (Meyer and Peters 2003, Lepre, Moore et al. 2004, Furihata, Shimotakahara et al. 2008), which detects interactions in the ternary complex formed by the protein, the ligand, and one or more water molecules, and the Saturation Transfer Difference (STD) NMR experiments (Mayer and Meyer 2001, Lepre, Moore et al. 2004, Wang, Liu et al. 2004), which detects magnetization transfer from the protein to the ligand in the protein-ligand complex. The Waterlogsy experiment is a more sensitive experiment, typically employed to detect qualitatively if there is an interaction between protein and ligand. […]

HMGB1-CXCL12 Complex = molecular target: T2, HMGB1-CXCL12 Complex (Homo sapiens, UniProt P09429, DEL90-93); assay: WaterLOGSY NMR with HMGB1/CXCL12 complex; format: binding; conditions: 6 mM SA or 5 mM ac3AESA, 20 μM complex
T2 construct: (i) full length: residues 2-215; full-length disulfide-intact CXCL12; hexaHis (TEV-cleavable) (N, cleaved yes)
T2 sequence (P09429 2-215 limits assumed): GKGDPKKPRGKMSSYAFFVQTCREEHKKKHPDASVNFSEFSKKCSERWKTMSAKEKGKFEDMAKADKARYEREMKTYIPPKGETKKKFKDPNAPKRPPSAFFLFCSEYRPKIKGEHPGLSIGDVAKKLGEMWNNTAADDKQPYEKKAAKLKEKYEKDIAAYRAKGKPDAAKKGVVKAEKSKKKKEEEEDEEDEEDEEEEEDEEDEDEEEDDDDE
Source text: as §1

Pep1 = assay: Callose staining: Pep1-induced callose deposition in Arabidopsis leaves; format: in vivo, Arabidopsis thaliana; conditions: 100 nM Pep1, 15 h
Method: (§2) Arabidopsis leaves were collected 15 h after infiltration with 100 nM AtHMGB3 or 100 nM Pep1, and then immediately immersed in alcoholic lactophenol (phenol:glycerol:lactic acid:water:ethanol=1:1:1:1:8) to destain the chlorophyll. To remove the background fluorescence, destained leaves were treated with toluidine blue O solution (0.05% toluidine blue O, 0.1 M sodium acetate, pH 4.4) for 30 min, and then rinsed twice with 150 mM K2HPO4 (pH 9.5). Callose was stained with aniline blue solution (0.02% aniline blue, 150 mM K2HPO4, pH 9.5) for 30 min in the absence of light. The aniline blue-stained leaves were mounted with 25% glycerol and analyzed using a Leica DM5500 epifluorescence microscope. The number of callose loci was quantified using an ImageJ (NIH).

HMGB1 [1] = molecular target: T3, HMGB1 (Homo sapiens, UniProt P09429); assay: Photoaffinity labeling of HMGB1 with 4AzSA, competition by SA; format: binding; conditions: 0.1 mM 4AzSA, increasing concentrations of SA
T3 construct: (i) full length: residues 2-215; 6x His (cleaved yes); made in house; host or cells: Escherichia coli BL21
T3 sequence (P09429 2-215): T2 sequence (P09429 2-215 limits assumed)
Method: HMGB1's SA-binding activity was then assessed using photoaffinity-crosslinking. Recombinant HMGB1 was pre-incubated with or without photoreactive 4-azido SA (4AzSA) before exposure to UV irradiation (FIG. 1B).

HMGB1 [2] = molecular target: T3, HMGB1; assay: Cell migration assay with mouse embryonic fibroblasts, WT or Ptgs2-/-; format: cell-based; conditions: dose-dependent, both WT and Ptgs2−/− MEFs
Method: Human HeLa cells were grown in T75 flasks in DMEM medium supplemented with penicillin (10,000 IU/mL) streptomycin ([…]), and 10% fetal calf serum. Ptgs2−/− MEFs were derived from Ptgs2−/− E16 mouse embryos, obtained from the mating of Ptgs2+/− mice purchased from Taconic Biosciences. PBMCs were isolated from buffy coats of donor blood (Hospital of Magenta, Milan, Italy) by Ficoll gradient centrifugation (Lymphoprep; AXIS-SHIELD. CD14+ monocytes were isolated by positive immunoselection (CD14 Microbeads; Miltenyi Biotec) according to the manufacturer's instructions, and differentiated into macrophages using X-Vivo medium supplemented with 1% heat inactivated human serum, GM-CSF, and M-CSF.
Cell migration was assayed using Boyden chambers (Venereau et al., 2012). The downside of PVP-free polycarbonate filters (8 μm pores; Millipore) was coated with 50 μg/ml fibronectin (Sigma). Serum-free DMEM (negative control), DMEM containing 0.1 nM fMLP (positive control; Sigma), or DMEM containing 1 nM HMGB1^RE or HMGB1^SS were placed in the lower chamber, together with different concentrations of SA (Sigma). The mouse 3T3 fibroblast cells were cultured in DMEM media supplemented with 10% CS until 90% confluence, washed twice with PBS to eliminate any floating cells, and harvested with trypsin. […]

AtHMGB3 = molecular target: T4, AtHMGB3 (Arabidopsis thaliana, UniProt P93047); assay: Callose staining: AtHMGB3-induced callose deposition in Arabidopsis leaves; format: in vivo; parameters: providing a full length Arabidopsis thaliana HMGB1 or HMGB3 (AtHMGB1 or AtHMGB3) protein; 6x His; made in house; host or cells: Escherichia coli BL21; conditions: 100 nM AtHMGB3, 15 h
T4 sequence (P93047 1-141): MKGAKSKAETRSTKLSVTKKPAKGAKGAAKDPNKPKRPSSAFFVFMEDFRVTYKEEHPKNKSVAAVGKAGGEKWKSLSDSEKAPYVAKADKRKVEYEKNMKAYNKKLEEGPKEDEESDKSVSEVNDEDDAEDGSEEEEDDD
Method: as §2

T1 sequence (P48061 22-89 limits assumed, species assumed): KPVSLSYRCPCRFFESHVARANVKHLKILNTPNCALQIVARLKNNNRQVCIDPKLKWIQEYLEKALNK

O=C(O)c1ccccc1O [SA, salicylic acid]
WaterLOGSY binding to CXCL12 (CXCL12): binds | WaterLOGSY binding to complex formed between CXCL12 and HMGB1 (HMGB1-CXCL12 Complex): binds | effect on Pep1-induced callose deposition (Pep1): unaffected | inhibition of crosslinking of 4AzSA to HMGB1 (HMGB1 [1]): effectively inhibited crosslinking | inhibition of fibroblast migration in WT and Ptgs2-/- MEFs (HMGB1 [2]): effectively inhibited | effect on AtHMGB3-induced callose deposition (AtHMGB3): completely suppressed
